The results in this text go back to patent publication US20250171438A1 (Agios Pharmaceuticals, Inc., priority 2022, published 2025).

Bounds are passed on as bounds.

One experiment concerns the target T1, human PAH with the R408W mutation (Homo sapiens, UniProt P00439, R408W).
T1 construct: expressed in transfected cells
T1 sequence (P00439 1-452 R408W): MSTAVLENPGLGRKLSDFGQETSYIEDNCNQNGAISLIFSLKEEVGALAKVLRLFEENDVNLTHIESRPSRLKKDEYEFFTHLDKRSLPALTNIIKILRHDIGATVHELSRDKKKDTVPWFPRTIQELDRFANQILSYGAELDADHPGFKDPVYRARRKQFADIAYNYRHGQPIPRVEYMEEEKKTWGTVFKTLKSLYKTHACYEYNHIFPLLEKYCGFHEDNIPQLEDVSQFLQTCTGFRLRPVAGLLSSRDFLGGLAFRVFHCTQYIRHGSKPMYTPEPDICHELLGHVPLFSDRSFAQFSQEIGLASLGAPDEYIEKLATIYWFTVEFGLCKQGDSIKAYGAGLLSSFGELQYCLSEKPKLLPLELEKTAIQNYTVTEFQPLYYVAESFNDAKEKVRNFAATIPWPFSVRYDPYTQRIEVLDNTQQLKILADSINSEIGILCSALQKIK
The experiment in a line: Cell Based Phenylalanine Flux Assay. The note with it: A375 cells expressing human R408W PAH; 24 hrs compound incubation; 13C-Tyrosine by LC-MS; average where tested multiple times; read-out: AC50.
As usually defined, the AC50 is the concentration at which the activity in the assay is half-maximal. On to `C[C@H]1CN(C(=O)c2nnc(-c3cnn(C)c3)o2)[C@@H](c2nc3ccccc3s2)c2nc[nH]c21` [Example 1751, ((4R,7S)-4-(benzo[d]thiazol-2-yl)-7-methyl-6,7-dihydro-1H-imidazo[4,5-c]pyridin-5(4H)-yl)(5-(1-methyl-1H-pyrazol-4-yl)-1,3,4-oxadiazol-2-yl)methanone], for which the AC50 was > 5 µM. Same read-out and setting: for `c1cnc(N2CCc3[nH]cnc3[C@H]2c2nc3ccccc3s2)nc1` [Example 1438] the value was < 0.5 µM; for `Cn1cc(-c2nnc(C(=O)N3CCc4[nH]cnc4[C@@H]3c3nc4c(F)cccc4s3)o2)cn1` [Example 1727, (R)-(4-(4-fluorobenzo[d]thiazol-2-yl)-6,7-dihydro-1H-imidazo[4,5-c]pyridin-5(4H)-yl)(5-(1-methyl-1H-pyrazol-4-yl)-1,3,4-oxadiazol-2-yl)methanone], 1 to 5 µM; for “((4R,7R)-4-(benzo[d]thiazol-2-yl)-7-methyl-6,7-dihydro-1H-imidazo[4,5- [Example 1587]”, 1 to 5 µM. `Cc1c(-c2ncc(C(=O)N3CCc4[nH]cnc4[C@@H]3c3nc4ccccc4s3)o2)cnn1C` [Example 1384, (R)-(4-(benzo[d]thiazol-2-yl)-6,7-dihydro-1H-imidazo[4,5-c]pyridin-5(4H)-yl)(2-(1,5-dimethyl-1H-pyrazol-4-yl)oxazol-5-yl)methanone]: the AC50 lay within 1 to 5 µM. On to `O=C(CC1(O)CCC1)N1CCc2[nH]cnc2[C@H]1c1nc2c(F)cccc2s1` [Example 1647, (S)-1-(4-(4-fluorobenzo[d]thiazol-2-yl)-6,7-dihydro-1H-imidazo[4,5-c]pyridin-5(4H)-yl)-2-(1-hydroxycyclobutyl)ethanone], for which the AC50 is 0.5 to 1 µM. As to `CC(C)(O)c1nc(Cl)c(C(=O)N2CCc3[nH]cnc3[C@H]2c2nc3c(F)cccc3s2)s1` [Example 2087, (S)-(4-chloro-2-(2-hydroxypropan-2-yl)thiazol-5-yl)(4-(4-fluorobenzo[d]thiazol-2-yl)-6,7-dihydro-1H-imidazo[4,5-c]pyridin-5(4H)-yl)methanone], the AC50 fell in the range of 1 to 5 µM. Take `CN(C)CCc1nc(C(F)(F)F)c(C(=O)N2CCc3[nH]cnc3[C@H]2c2nc3ccccc3s2)o1` [Example 1581]: the AC50 was < 0.5 µM. For the molecule `CC(F)c1nc(C(F)F)c(C(=O)N2CCc3[nH]cnc3[C@H]2c2nc3c(F)cccc3s2)o1` (single isomer, unassigned) [Example 2073], the AC50 was < 0.5 µM. Turning to `N#Cc1nc(-c2ccccn2)oc1C(=O)N1CCc2[nH]cnc2[C@H]1c1nc2ccccc2s1` [Example 1714, (S)-5-(4-(benzo[d]thiazol-2-yl)-4,5,6,7-tetrahydro-1H-imidazo[4,5-c]pyridine-5-carbonyl)-2-(pyridin-2-yl)oxazole-4-carbonitrile], the AC50 is < 0.5 µM. As for `CC(C)(O)/C=C/c1nc(C(F)(F)F)c(C(=O)N2CCc3[nH]cnc3[C@H]2c2nc3ccccc3s2)o1` [Example 1569], the concentration at half-maximal activity (AC50) was < 0.5 µM.

The same experiment, now with this note: A375 cells expressing human R408W PAH; 24 hrs with compound; 13C-Tyrosine by LC-MS; average where tested multiple times; read-out: AC50.
As for `Cn1ccc(C(=O)N2CCc3[nH]cnc3C2c2nc3c(F)cccc3s2)n1` (stereo not drawn), the AC50 is > 5 µM.

Turning to `O=C(CCc1cscn1)N1CCc2[nH]cnc2[C@H]1c1nc2ccccc2[nH]1` [(S)-1-(4-(1H-benzo[d]imidazol-2-yl)-1,4,6,7-tetrahydro-5H-imidazo[4,5-c]pyridin-5-yl)-3-(thiazol-4-yl)propan-1-one], the AC50 lay within 1 to 5 µM. The same measure, in the same setting: in the case of `O=C(c1cn[nH]c1)N1CCc2[nH]cnc2C1c1nc2ccccc2s1` (stereo not drawn) it was 1 to 5 µM; in that of `Cc1ncoc1C(=O)N1CC2(CC2)c2[nH]cnc2C1c1nc2c(F)cccc2s1` (stereo not drawn), > 5 µM; in that of `Cn1nc(COC(F)(F)F)cc1C(=O)N1CCc2[nH]cnc2C1c1nc2c(F)cccc2s1` (stereo not drawn), > 5 µM. The same measure, in the same setting: in the case of `O=C(c1cnn2cc(Cl)ccc12)N1CCc2nc[nH]c2C1c1nc2cc(F)ccc2s1` (stereo not drawn) it was > 5 µM; in that of `O=C(c1cnn2ccccc12)N1CCc2[nH]cnc2[C@H]1c1nc2ccc(Cl)cc2s1` (single isomer, unassigned), 1 to 5 µM.
